This passage reports IC50 and selectivity ratio results from ChEMBL document CHEMBL1154702, “Enhancement of the antimalarial activity of ciprofloxacin using a double prodrug/bioorganometallic approach” (J Med Chem, 2009).

Each structure is given as a SMILES string.

Data set [1] concerns Plasmodium falciparum. Put plainly: Antimalarial activity against Plasmodium falciparum 3D7. The data set is classed as functional, organism-based.
The test system of data set [2] is Plasmodium falciparum. Put plainly: Antimalarial activity against Plasmodium falciparum NF54. Type of data set: functional, organism-based.
Data set [3] deals with Plasmodium falciparum. Description: Antimalarial activity against chloroquine-sensitive Plasmodium falciparum 3D7 infected in erythrocytes after 48 hrs by [3H]hypoxanthine incorporation assay. The data set is classed as functional, organism-based.
Data set [4] relates to Plasmodium falciparum. Description: Antimalarial activity against chloroquine-resistant Plasmodium falciparum W2 infected in erythrocytes after 48 hrs by [3H]hypoxanthine incorporation assay. Type of data set: functional, organism-based.
Data set [5] deals with Plasmodium falciparum. Description: Antimalarial activity against chloroquine-sensitive Plasmodium falciparum 3D7 infected in erythrocytes after 96 hrs by [3H]hypoxanthine incorporation assay. The data set is classed as functional, organism-based.
Data set [6] relates to Plasmodium falciparum. Put plainly: Antimalarial activity against chloroquine-resistant Plasmodium falciparum W2 infected in erythrocytes after 96 hrs by [3H]hypoxanthine incorporation assay. Type of data set: functional, organism-based.
For data set [7], the system named is Plasmodium falciparum. Put plainly: Antimalarial activity against chloroquine-sensitive Plasmodium falciparum PA infected in erythrocytes after 48 hrs by [3H]hypoxanthine incorporation assay. Type of data set: functional, organism-based.
The test system of data set [8] is Plasmodium falciparum. Put plainly: Antimalarial activity against […] Plasmodium falciparum IMT K2 infected in erythrocytes after 48 hrs by [3H]hypoxanthine incorporation assay. The data set is classed as functional, organism-based.
The nature of data set [9]: Cytotoxicity against concanavalin-stimulated BALB/c mouse splenocytes after 72 hrs by resazurin dye reduction method. Type of data set: cell-based. The conditions noted are these: Splenocyte. On the technique in general: Resazurin is reduced to fluorescent resorufin, in cell work by metabolically active cells.
Data set [10] is described as follows: Therapeutic index, ratio of IC50 for concanavalin-stimulated BALB/c mice (Mus musculus) splenocytes to IC50 for Plasmodium falciparum 3D7. The conditions noted are these: read-out: Ratio IC50.
Data set [11] in a line: Therapeutic index, ratio of IC50 for concanavalin-stimulated BALB/c mice (Mus musculus) splenocytes to IC50 for Plasmodium falciparum W2 after 48 hrs. Particulars: read-out: Ratio IC50.
The subject of data set [12] is Plasmodium falciparum. Description: Antimalarial activity against chloroquine-sensitive Plasmodium falciparum IMTVo1 infected in erythrocytes after 48 hrs by [3H]hypoxanthine incorporation assay. Type of data set: functional, organism-based.
Data set [13] relates to Plasmodium falciparum. Description: Antimalarial activity against chloroquine-sensitive Plasmodium falciparum IMT10500 infected in erythrocytes after 48 hrs by [3H]hypoxanthine incorporation assay. Type of data set: functional, organism-based.
In data set [14] the test system is Plasmodium falciparum. Description: Antimalarial activity against chloroquine-sensitive Plasmodium falciparum IMTL1 infected in erythrocytes after 48 hrs by [3H]hypoxanthine incorporation assay. The data set is classed as functional, organism-based.
Data set [15] has as its system Plasmodium falciparum. Description: Antimalarial activity against chloroquine-sensitive Plasmodium falciparum FCR3 infected in erythrocytes after 48 hrs by [3H]hypoxanthine incorporation assay. The data set is classed as functional, cell-based. Particulars: FCR-3/Gambia.
Data set [16] has as its system Plasmodium falciparum. Put plainly: Antimalarial activity against chloroquine-sensitive Plasmodium falciparum FCM29 infected in erythrocytes after 48 hrs by [3H]hypoxanthine incorporation assay. The data set is classed as functional, organism-based.

As to `Cc1c(F)c(N2CCNC(C)C2)cc2c1c(=O)c(C(=O)O)cn2C1CC1` (stereo unspecified) [GREPAFLOXACIN], the IC50 in the data set on Plasmodium falciparum [1] and in the data set with Plasmodium falciparum [2] was at least 10 µM each time.
As to `COc1c(N2C[C@@H]3CCCN[C@@H]3C2)c(F)cc2c(=O)c(C(=O)O)cn(C3CC3)c12` [MOXIFLOXACIN], the IC50 with Plasmodium falciparum [1] and in the data set with Plasmodium falciparum [2] was at least 10 µM each time.
For `C[C@H]1[C@H](OC(=O)CCC(=O)O)O[C@@H]2O[C@@]3(C)CC[C@H]4[C@H](C)CC[C@@H]1[C@@]24OO3` [ARTESUNATE], the IC50 with Plasmodium falciparum [3] came out at 1.7 µM; in the data set on Plasmodium falciparum [4], 2.4 µM; in the data set with Plasmodium falciparum [5], 2000 nM; with Plasmodium falciparum [6], 2.1 µM; in the data set with Plasmodium falciparum [7], 0.002 µM; with Plasmodium falciparum [8] it was 0.0018 µM.
As to `CCOC(=O)c1cn(C2CC2)c2cc(N3CCNCC3)c(F)cc2c1=O` [CIPROFLOXACIN ETHYL ESTER], the IC50 in the data set with Plasmodium falciparum [1] is at least 10 µM; in the data set with Plasmodium falciparum [2], at least 10 µM; in the data set on Plasmodium falciparum [3], 3.1 µM; in the data set on Plasmodium falciparum [4] it was 3.9 µM; in the data set on Plasmodium falciparum [5], 1600 nM; in the data set on Plasmodium falciparum [6] it was 3.1 µM. In addition, the IC50 in [9] was above 40 µM. In data set [10], the selectivity ratio is above 12.9. Besides, in data set [11], the selectivity ratio at 48 h was above 10.2.
With `C[C@H]1c2cccc(O)c2C(=O)C2=C(O)[C@]3(O)C(=O)C(C(N)=O)=C(O)[C@@H](N(C)C)[C@@H]3[C@@H](O)[C@@H]21` [DOXYCYCLINE], the IC50 in the data set on Plasmodium falciparum [3] is 12 µM; in the data set on Plasmodium falciparum [4], 10.7 µM; with Plasmodium falciparum [5], 1700 nM; with Plasmodium falciparum [6], 1.2 µM; in the data set on Plasmodium falciparum [12] (read-out: IC50) it was 9.1 µM; in the data set with Plasmodium falciparum [13] (read-out: IC50), 13.3 µM. Besides, the half-inhibitory concentration (IC50) in the data set with Plasmodium falciparum [14] came out at 8.4 µM; in the data set with Plasmodium falciparum [7], 12.9 µM; with Plasmodium falciparum [15] (read-out: IC50), 9.7 µM; with Plasmodium falciparum [16], 11.1 µM; with Plasmodium falciparum [8] it was 14.9 µM.
On to `COc1c(N2CCNC(C)C2)c(F)cc2c(=O)c(C(=O)O)cn(C3CC3)c12` (stereo unspecified) [GATIFLOXACIN], for which the IC50 in the data set with Plasmodium falciparum [1] and in the data set on Plasmodium falciparum [2] was at least 10 µM in each case.
In the case of `C=C[C@H]1CN2CC[C@H]1C[C@H]2[C@H](O)c1ccnc2ccc(OC)cc12` [QUININE], the half-inhibitory concentration (IC50) stood at 186 µM with Plasmodium falciparum [3]; 520 µM in the data set on Plasmodium falciparum [4]; 456 µM in the data set on Plasmodium falciparum [6]; 0.428 µM with Plasmodium falciparum [12] (read-out: IC50); 0.543 µM with Plasmodium falciparum [14]; 0.571 µM in the data set on Plasmodium falciparum [7]. In addition, the IC50 in the data set with Plasmodium falciparum [15] (read-out: IC50) was found to be 0.65 µM; in the data set on Plasmodium falciparum [16], 0.0058 µM; in the data set on Plasmodium falciparum [8], 0.0067 µM.
With `O=C(O)c1cn(C2CC2)c2cc(N3CCNCC3)c(F)cc2c1=O` [CIPROFLOXACIN], the IC50 with Plasmodium falciparum [3] is 45.9 µM; in the data set on Plasmodium falciparum [4], 119 µM; in the data set with Plasmodium falciparum [5], 10100 nM; in the data set with Plasmodium falciparum [6], 14.1 µM; in data set [9], above 40 µM; in the data set on Plasmodium falciparum [12] it was 51.6 µM. The IC50 in the data set with Plasmodium falciparum [13] stood at 74.8 µM; in the data set with Plasmodium falciparum [14], 41.3 µM; in the data set with Plasmodium falciparum [7], 45.5 µM; in the data set with Plasmodium falciparum [15], 74.3 µM; in the data set on Plasmodium falciparum [16], 45.6 µM; with Plasmodium falciparum [8] it was 80.8 µM. The selectivity ratio in data set [10] was above 0.8. Also, the selectivity ratio at 48 h in data set [11] was above 0.3.
As to `CCN(CC)CCCC(C)Nc1ccnc2cc(Cl)ccc12` (stereo unspecified) [CHLOROQUINE], in data set [9], the midpoint of inhibition, the IC50, lay at 3.46 µM.

One may read the IC50 as the concentration that gives 50% inhibition.
